Where “and” joins values, the source holds several entries; their conditions need not be identical. Equal values may be shown once. Each block holds one molecule with its values, some of them ahead of it.
Test system: 519858-162-T-J1-PDC complex spheroid viability
Assay: Anticancer human tumor 519858-162-T-J1-PDC patient-derived colon adenocarcinoma cell line growth inhibition [GQUAD]
Conditions: for viability, T/C: stronger effect = lower value
Text: DNA G-quadruplex Stabilizer Agents in Combinations in Complex Spheroids
A high-throughput screen of multi-cell type tumor spheroids was designed to identify active combinations of DNA G-quadruplex stabilizer agents and targeted small molecules. Complex spheroids include a stromal component modeled by human endothelial cells (HUVEC) and fibroblasts modeled by human mesenchymal stem cells (MSCs). The concentration ranges selected for each drug and investigational agent were based upon clinically achievable concentrations if the clinical Cmax of the agent was known.
Compounds. The drugs and investigational agents: pidnarulex (CX-5461; NSC782164), APTO-253 (NSC789042), BRACO-19 (NSC847499), peposertib (NSC802822), ceralasertib (NSC780249), elimusertib (NSC800525), camonsertib (NSC841442), AZD-1390 (NSC803789), olaparib (NSC753686), talazoparib (NSC767125), ART-558 (NSC835418), sotorasib (NSC818433), MRTX-1133 (NSC836407), SN-38 (NSC673596), topotecan (NSC609699), etoposide (NSC141540), doxorubicin (NSC123127), gemcitabine (NSC613327), 5-fluorouracil (NSC19893), paclitaxel (NSC125973), vemurafenib (NSC761431), panobinostat (NSC761190), R-306465 (JNJ-16241199; NSC773264), adavosertib (NSC754352), TP-3654 (NSC805149), carboplatin (NSC241240), KSQ-4279 (NSC840948), and staurosporine (NSC755774) were obtained from the National Cancer Institute (NCI) Developmental Therapeutics Program Chemical Repository (34). The FDA-approved anticancer drug set is available from the NCI Developmental Therapeutics Program. […] The stock solutions were prepared in dimethyl sulfoxide (DMSO, Sigma-Aldrich, St. Louis, MO, cat. D2650) at 800-fold the tested concentration and stored at -70 degrees C prior to their use. All drugs and investigational agents were tested over a range starting from a high concentration at or near the clinical Cmax and decreasing in half-log increments. If the clinical Cmax for an agent had not been determined, the highest concentration tested was 10 microM.
2.3 Cell Culture. All cells were maintained in an incubator at 37 degrees C and 5% CO2 with 95% humidity. The PDC lines were cultured according to standard operating procedures established by the NCI PDMR. All PDCs were thawed and cultured in Matrigel-coated flasks prepared with a working solution of 1X Ham's F-12 nutrient mix, without supplementation (Invitrogen, cat. 11765054), 100 U/mL penicillin-streptomycin (Invitrogen, cat. 15140122), and 2.5% Matrigel (Corning Inc., cat. 354248) for the first three passages. The 857933-349-R-J2-PDC line was cultured in 6C/Colon 1B media, which includes advanced DMEM/F-12 (Thermo Fisher Scientific, cat. 12634028), 10 mM HEPES (Thermo Fisher Scientific, cat. 15630080), 1X GlutaMAX supplement (Thermo Fisher Scientific, cat. 35050061), 0.1 mg/mL primocin (InvivoGen, cat. ant-pm-2), 10% defined fetal bovine serum, heat inactivated (HyClone Laboratories Inc., cat. SH30070.03HI), 50% L-WRN conditioned media (ATCC, cat. CRL-3276), 1.25 mM N-Acetyl-L-cysteine (Sigma-Aldrich, cat. A9165), 10 mM nicotinamide (Sigma-Aldrich, cat. N0636), 1X B-27 supplement (Thermo Fisher Scientific, cat. 17504044), 1X N-2 supplement (Thermo Fisher Scientific, cat. 17502048), 10 microM Y-27632 dihydrochloride (Tocris Bioscience, cat. 1254), and 50 ng/mL human EGF recombinant protein (Thermo Fisher Scientific, cat. PHG0311). The 485176-168-R4-J1-PDC line was cultured in Panc media, which includes all 6C/Colon 1B media components plus 100 ng/mL human FGF-10 (Thermo Fisher Scientific, cat. 100-26), 500 nM SB-431542 (Selleckchem, cat. S1067), and gastrin (Tocris, cat. 3006).
[…]
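Further: spheroids exposed to compounds for 7 days.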
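Wherever viability, T/C is given: 100% = DMSO vehicle control viability.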

IC50 (curve of first compound, second compound 0.0316 µM): > 316 nM | IC50 (curve of first compound, second compound 0.1 µM): > 316 nM | IC50 (curve of first compound, second compound 0.316 µM): > 316 nM | IC50 (curve of first compound, second compound 1 µM): > 316 nM | IC50 (curve of first compound, second compound 3.16 µM): < 0.999 nM | IC50 (curve of first compound, second compound 10 µM): < 0.999 nM
SMILES: Cn1ncnc1[C@H]1c2n[nH]c(=O)c3cc(F)cc(c23)N[C@@H]1c1ccc(F)cc1 + Cc1cnc(CNC(=O)c2c(=O)c3ccc(N4CCCN(C)CC4)nc3n3c2sc2ccccc23)cn1
viability, T/C (second compound 0.0316 µM, first compound 0.000999 µM): 96.5% | viability, T/C (second compound 0.0316 µM, first compound 0.00316 µM): 116% | viability, T/C (second compound 0.0316 µM, first compound 0.00999 µM): 101% | viability, T/C (second compound 0.0316 µM, first compound 0.0316 µM): 72.1% | viability, T/C (second compound 0.0316 µM, first compound 0.0999 µM): 70.2% | viability, T/C (second compound 0.0316 µM, first compound 0.316 µM): 57.8% | viability, T/C (second compound 0.1 µM, first compound 0.000999 µM): 60.1% | viability, T/C (second compound 0.1 µM, first compound 0.00316 µM): 92.9% | viability, T/C (second compound 0.1 µM, first compound 0.00999 µM): 79.5% | viability, T/C (second compound 0.1 µM, first compound 0.0316 µM): 79.5% | viability, T/C (second compound 0.1 µM, first compound 0.0999 µM): 56.8% | viability, T/C (second compound 0.1 µM, first compound 0.316 µM): 65.2% | viability, T/C (second compound 0.316 µM, first compound 0.000999 µM): 85.3% | viability, T/C (second compound 0.316 µM, first compound 0.00316 µM): 81.8% | viability, T/C (second compound 0.316 µM, first compound 0.00999 µM): 65.9% | viability, T/C (second compound 0.316 µM, first compound 0.0316 µM): 72% | viability, T/C (second compound 0.316 µM, first compound 0.0999 µM): 61.5% | viability, T/C (second compound 0.316 µM, first compound 0.316 µM): 58.9% | viability, T/C (second compound 1 µM, first compound 0.000999 µM): 85.2% | viability, T/C (second compound 1 µM, first compound 0.00316 µM): 72.3% | viability, T/C (second compound 1 µM, first compound 0.00999 µM): 60.9% | viability, T/C (second compound 1 µM, first compound 0.0316 µM): 73.3% | viability, T/C (second compound 1 µM, first compound 0.0999 µM): 69.9% | viability, T/C (second compound 1 µM, first compound 0.316 µM): 72.7% | viability, T/C (second compound 3.16 µM, first compound 0.000999 µM): 47.3% | viability, T/C (second compound 3.16 µM, first compound 0.00316 µM): 48.7% | viability, T/C (second compound 3.16 µM, first compound 0.00999 µM): 50.3% | viability, T/C (second compound 3.16 µM, first compound 0.0316 µM): 38.7% | viability, T/C (second compound 3.16 µM, first compound 0.0999 µM): 43.1% | viability, T/C (second compound 3.16 µM, first compound 0.316 µM): 52.3% | viability, T/C (second compound 10 µM, first compound 0.000999 µM): 26.9% | viability, T/C (second compound 10 µM, first compound 0.00316 µM): 54% | viability, T/C (second compound 10 µM, first compound 0.00999 µM): 44.4% | viability, T/C (second compound 10 µM, first compound 0.0316 µM): 50.4% | viability, T/C (second compound 10 µM, first compound 0.0999 µM): 49.1% | viability, T/C (second compound 10 µM, first compound 0.316 µM): 72%

IC50 (compound alone, run of 02/26/2024): > 10000 nM
SMILES: CN(C)c1ccc(Nc2c3ccc(NC(=O)CCN4CCCC4)cc3nc3cc(NC(=O)CCN4CCCC4)ccc23)cc1
viability, T/C (compound 0.0316 µM): 85.1% [middle of 7 runs] | viability, T/C (compound 10 µM): 67.7% [middle of 7 runs]

IC50 (curve of compound): > 10000 nM
SMILES: C=CC(=O)N1CCN(c2nc(=O)n(-c3c(C)ccnc3C(C)C)c3nc(-c4c(O)cccc4F)c(F)cc23)C(C)C1 (configuration not stated)
viability, T/C (compound 0.0316 µM): 75% and 84.1% and 70.8% | viability, T/C (compound 0.1 µM): 84.2% and 85.5% and 98.3% | viability, T/C (compound 0.316 µM): 89% and 80.9% and 104% | viability, T/C (compound 1 µM): 103% and 77.7% and 99% | viability, T/C (compound 3.16 µM): 104% and 70.7% and 95.2% | viability, T/C (compound 10 µM): 71.5% and 91% and 74.5%

— PubChem BioAssay AID2060507 (Molecular Pharmacology Branch, DTP, NCI, 2025)
